{
  "source": "patent US20220397566A1",
  "about": "“GAMMA-SECRETASE STABILIZING COMPOUND SCREENING ASSAY” (VIB VZW, priority 2019, published 2022)",
  "type_in_all_cases": "cell-based, mouse",
  "key": {"[1]": {"target": "T1, PSEN1/g-secretase complex (Homo sapiens, UniProt P49768)", "T1 construct": "expressed in transfected cells", "experiment": "Relocation of GFP-PSEN1/g-secretase to LAMP1-positive late endosomes (confocal immunofluorescence)"}, "PSEN2/g-secretase": {"target": "T2, PSEN2/g-secretase (Homo sapiens, UniProt P49810)", "T2 construct": "expressed in transfected cells", "experiment": "Localisation of GFP-PSEN2/g-secretase in LAMP1-positive organelles (confocal)", "settings": "1 μM, 16 hrs; dKO MEFs rescued with EGFP-PSEN2", "description": "We now questioned whether g-secretase inhibitors would affect subcellular distribution of g-secretase complexes as well. We made use of mouse embryonic fibroblasts (MEFs) in which both PSEN1 an PSEN2 are knocked-out (dKO), rescued with either EGFP-PSEN1 or EGFP-PSEN2 (FIG. 1A). […] The dKO MEFs were then incubated overnight with N—[N-(3,5-difluorophenacetyl)-L-alanyl]-S-phenylglycine t-butyl ester (DAPT). DAPT is a non-transition state analogue (TSA) g-secretase inhibitor that is widely used (Dovey et al 2001 J Neurochem 76).\nAll culture media and sera are from ThermoFisher Scientific. Mouse embryonic fibroblasts (MEFs), PSEN1 knock-out (1 ko), PSEN1 and PSEN2 double knock-out (dKO, Herreman et al 2000 Nat Cell Biol 2), rescued 1 ko and dKO cell lines cells were routinely grown in Dulbecco's modified Eagle's medium (DMEM/F12) supplemented with 10% fetal calf serum (FCS). All cell lines were maintained in a humidified chamber with 5% CO2 at 37° C. […]\n(§1) Cells were plated on glass coverslips, transfected 24 h later and processed for indirect immunolabeling the next day (Sannerud et al 2011 Proc Natl Acad Sci USA 108). […] ImageJ software with the plugin JACoP (Bolte and Cordelieres 2006 J Microsc 224) was used for signal overlap quantification (Mander's coefficient). Images were acquired with identical settings and regions of interest (ROI) covering whole cells were used for quantification."}, "FAD-PSEN1 mutants": {"test_system": "FAD-PSEN1 mutants", "experiment": "Late endosomal localisation of FAD-PSEN1 mutants in PSEN1 KO MEFs", "settings": "DAPT 1 μM 16 h", "description": "FIG. 6. Familial Alzheimer's disease (FAD) mutations in PSEN1 differently affect g-secretase localization in late endosomes. Ratio of GFP intensity in LAMP1 endosomes over total GFP signal in PSEN1 KO MEFs stably rescued with GFP-PSEN1 wild-type (Wt) or the indicated FAD-PSEN1 mutants and treated with DMSO or DAPT (1 μM) 16 h.\nAs these mutations were reported to have an early onset and high thermo-instability (reflecting lowest processivity), we extended this experiment to other mutations reported in Szaruga et al (2017 Cell 170). In line with the above, the PSEN1-P88L mutation translocated PSEN1/g-secretase to late endosomes as well. […] These mutations have a higher onset and affect the Ab processivity less as compared to L166P, G384A and P88L mutants."}, "g-secretase subunits": {"target": "T3, g-secretase subunits (Homo sapiens, UniProt P49768)", "T3 construct": "expressed in transfected cells", "experiment": "Expression of g-secretase subunits (Western blot)", "settings": "1 μM DAPT; data not shown", "description": "First, in the PSEN1 KO mouse embryonic fibroblasts (MEFs) rescued with EGFP-PSEN1 (see Example 1) the expression of the g-secretase subunits was tested and found not affected by administering any of the 12 compounds, including DAPT that was used as positive control (data not shown).\nProtein concentrations were determined by the Bio-Rad DC protein assay (Bio-Rad). Samples were separated by SDS-PAGE (4-12% Bis-Tris NuPAGE gels in MES running buffer (ThermoFisher Scientific) and transferred onto nitrocellulose membranes (ThermoFisher Scientific). After blocking in 5% non-fat milk, membranes were incubated with primary antibody (4° C., overnight) followed by washing and incubation with horseradish peroxidase (HRP)-conjugated secondary antibodies (1 h, room temperature). After final washing, immunodetection was done using enhanced chemiluminescence (Western Lightning-Plus ECL, PerkinElmer), and immunoreactive protein bands were digitally captured and quantified on a Fuji MiniLAS 3000 imager (Fuji, Dusseldorf, Germany) using Aida Image Analyzer software (Raytest, Germany). Data are represented as mean±SEM of at least three independent experiments."}, "[2]": {"test_system": "LAMP1-positive organelles", "experiment": "Size area of LAMP1-positive organelles per cell", "settings": "1 μM, 16 hrs", "description": "FIG. 1. DAPT relocates PSEN1/g-secretase to late endosomes. (A) PSEN1 and PSEN2 double knock-out (dKO) MEFs stably expressing GFP-PSEN1 or GFP-PSEN2 were treated for 16 h with 1 μM of DAPT or DMSO and immunostained for GFP (green) and LAMP1 antibodies (red). (B) Quantification of (A) using Mander's coefficient. (C) Ratio of GFP intensity in LAMP1-positive structures over total GFP intensity in the cell, normalized to DMSO-treated cells (control=Ctrl). (D) Quantification of size area of LAMP1-positive organelles per cell showing no significant differences between DMSO and DAPT-treated cells. (E) PSEN1, PSEN2 and NCT triple KO MEFs stably rescued with NCT-SNAP and GFP-PSEN1 were treated for 16 h with 1 μM of DAPT or DMSO (Ctrl). […] All graphs show the median with 95% confidence interval (n=3, ˜20 cells per experiments; p-values are calculated using Mann-Whitney test; ns means non-significant).\nas §1"}},
  "data": [
    {"compound": "C[C@H](NC(=O)Cc1cc(F)cc(F)c1)C(=O)N[C@H](C(=O)OC(C)(C)C)c1ccccc1", "note": "[DAPT, N—[N-(3,5-difluorophenacetyl)-L-alanyl]-S-phenylglycine t-butyl ester]", "values": [
      {"measurement": "co-distribution of EGFP-PSEN1 with anti-LBPA immunoreactivity (late endosomes)", "setting": "[1]; PSEN1 KO MEFs rescued with GFP-PSEN1, 1 μM, 16 h", "result": "even more strongly co-distributed with anti-LBPA immunoreactivity"},
      {"measurement": "relocation of EGFP-PSEN1 to LAMP1-positive organelles", "setting": "[1]; single PSEN1 KO MEFs stably transduced with EGFP-PSEN1, data not shown", "result": "Identical observations"},
      {"measurement": "co-accumulation of EGFP-PSEN1 and NCT-SNAP in LAMP1-positive organelles", "setting": "[1]; triple KO MEFs rescued with EGFP-PSEN1 and NCT-SNAP, 1 μM, 16 h", "result": "co-accumulate in LAMP1-positive organelles"},
      {"measurement": "EGFP-PSEN2 in LAMP1-positive organelles, Mander's coefficient", "setting": "PSEN2/g-secretase", "result": "no additional effect"},
      {"measurement": "ratio of EGFP-PSEN2 fluorescence within LAMP1-positive compartments over total", "setting": "PSEN2/g-secretase", "result": "remained unaltered"},
      {"measurement": "late endosomal localization of mutant PSEN1", "setting": "FAD-PSEN1 mutants; L166P, G384A, P88L mutants", "result": "did not further increase late endosomal localization"},
      {"measurement": "shift of PSEN1/g-secretase to late endosomes", "setting": "FAD-PSEN1 mutants; Y115H and E280A mutants", "result": "did not shift PSEN1/g-secretase to late endosomes, unless treated with DAPT"},
      {"measurement": "steady state of PSEN1 or PSEN2 protein levels", "setting": "g-secretase subunits", "result": "no measurable effect"},
      {"measurement": "total size area of LAMP1-positive organelles", "setting": "[2]", "result": "no measurable effect"}
    ]}
  ]
}
